Results on one compound are retold here after article PMC11191317, “PNSC928, a plant-derived compound, specifically disrupts CtBP2-p300 interaction and reduces inflammation in mice with acute respiratory distress syndrome” (Biology Direct, 2024).

In test [1] the target is T1, CtBP2-p300 interaction (Mus musculus, UniProt B2RWS6+P56546).
T1 construct: In vivo immunoprecipitation with anti-CtBP2-coated protein G beads in MPAEpiC cells; endogenous in cells; host or cells: MPAEpiC (mouse pulmonary alveolar epithelial cells)
T1 sequence (P56546 whole entry): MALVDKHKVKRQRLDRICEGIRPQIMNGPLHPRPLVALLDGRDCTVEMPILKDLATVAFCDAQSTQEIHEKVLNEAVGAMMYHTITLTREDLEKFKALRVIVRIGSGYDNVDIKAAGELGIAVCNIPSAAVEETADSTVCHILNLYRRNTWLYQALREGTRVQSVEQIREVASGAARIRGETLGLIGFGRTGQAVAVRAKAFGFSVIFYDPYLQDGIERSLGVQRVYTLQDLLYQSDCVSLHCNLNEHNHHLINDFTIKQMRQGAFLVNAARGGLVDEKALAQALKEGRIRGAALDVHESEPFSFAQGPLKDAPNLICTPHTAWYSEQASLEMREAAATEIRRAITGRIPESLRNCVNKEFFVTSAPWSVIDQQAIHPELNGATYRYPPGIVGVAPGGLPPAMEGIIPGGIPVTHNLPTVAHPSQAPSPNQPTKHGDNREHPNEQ
T1 sequence (B2RWS6 whole entry): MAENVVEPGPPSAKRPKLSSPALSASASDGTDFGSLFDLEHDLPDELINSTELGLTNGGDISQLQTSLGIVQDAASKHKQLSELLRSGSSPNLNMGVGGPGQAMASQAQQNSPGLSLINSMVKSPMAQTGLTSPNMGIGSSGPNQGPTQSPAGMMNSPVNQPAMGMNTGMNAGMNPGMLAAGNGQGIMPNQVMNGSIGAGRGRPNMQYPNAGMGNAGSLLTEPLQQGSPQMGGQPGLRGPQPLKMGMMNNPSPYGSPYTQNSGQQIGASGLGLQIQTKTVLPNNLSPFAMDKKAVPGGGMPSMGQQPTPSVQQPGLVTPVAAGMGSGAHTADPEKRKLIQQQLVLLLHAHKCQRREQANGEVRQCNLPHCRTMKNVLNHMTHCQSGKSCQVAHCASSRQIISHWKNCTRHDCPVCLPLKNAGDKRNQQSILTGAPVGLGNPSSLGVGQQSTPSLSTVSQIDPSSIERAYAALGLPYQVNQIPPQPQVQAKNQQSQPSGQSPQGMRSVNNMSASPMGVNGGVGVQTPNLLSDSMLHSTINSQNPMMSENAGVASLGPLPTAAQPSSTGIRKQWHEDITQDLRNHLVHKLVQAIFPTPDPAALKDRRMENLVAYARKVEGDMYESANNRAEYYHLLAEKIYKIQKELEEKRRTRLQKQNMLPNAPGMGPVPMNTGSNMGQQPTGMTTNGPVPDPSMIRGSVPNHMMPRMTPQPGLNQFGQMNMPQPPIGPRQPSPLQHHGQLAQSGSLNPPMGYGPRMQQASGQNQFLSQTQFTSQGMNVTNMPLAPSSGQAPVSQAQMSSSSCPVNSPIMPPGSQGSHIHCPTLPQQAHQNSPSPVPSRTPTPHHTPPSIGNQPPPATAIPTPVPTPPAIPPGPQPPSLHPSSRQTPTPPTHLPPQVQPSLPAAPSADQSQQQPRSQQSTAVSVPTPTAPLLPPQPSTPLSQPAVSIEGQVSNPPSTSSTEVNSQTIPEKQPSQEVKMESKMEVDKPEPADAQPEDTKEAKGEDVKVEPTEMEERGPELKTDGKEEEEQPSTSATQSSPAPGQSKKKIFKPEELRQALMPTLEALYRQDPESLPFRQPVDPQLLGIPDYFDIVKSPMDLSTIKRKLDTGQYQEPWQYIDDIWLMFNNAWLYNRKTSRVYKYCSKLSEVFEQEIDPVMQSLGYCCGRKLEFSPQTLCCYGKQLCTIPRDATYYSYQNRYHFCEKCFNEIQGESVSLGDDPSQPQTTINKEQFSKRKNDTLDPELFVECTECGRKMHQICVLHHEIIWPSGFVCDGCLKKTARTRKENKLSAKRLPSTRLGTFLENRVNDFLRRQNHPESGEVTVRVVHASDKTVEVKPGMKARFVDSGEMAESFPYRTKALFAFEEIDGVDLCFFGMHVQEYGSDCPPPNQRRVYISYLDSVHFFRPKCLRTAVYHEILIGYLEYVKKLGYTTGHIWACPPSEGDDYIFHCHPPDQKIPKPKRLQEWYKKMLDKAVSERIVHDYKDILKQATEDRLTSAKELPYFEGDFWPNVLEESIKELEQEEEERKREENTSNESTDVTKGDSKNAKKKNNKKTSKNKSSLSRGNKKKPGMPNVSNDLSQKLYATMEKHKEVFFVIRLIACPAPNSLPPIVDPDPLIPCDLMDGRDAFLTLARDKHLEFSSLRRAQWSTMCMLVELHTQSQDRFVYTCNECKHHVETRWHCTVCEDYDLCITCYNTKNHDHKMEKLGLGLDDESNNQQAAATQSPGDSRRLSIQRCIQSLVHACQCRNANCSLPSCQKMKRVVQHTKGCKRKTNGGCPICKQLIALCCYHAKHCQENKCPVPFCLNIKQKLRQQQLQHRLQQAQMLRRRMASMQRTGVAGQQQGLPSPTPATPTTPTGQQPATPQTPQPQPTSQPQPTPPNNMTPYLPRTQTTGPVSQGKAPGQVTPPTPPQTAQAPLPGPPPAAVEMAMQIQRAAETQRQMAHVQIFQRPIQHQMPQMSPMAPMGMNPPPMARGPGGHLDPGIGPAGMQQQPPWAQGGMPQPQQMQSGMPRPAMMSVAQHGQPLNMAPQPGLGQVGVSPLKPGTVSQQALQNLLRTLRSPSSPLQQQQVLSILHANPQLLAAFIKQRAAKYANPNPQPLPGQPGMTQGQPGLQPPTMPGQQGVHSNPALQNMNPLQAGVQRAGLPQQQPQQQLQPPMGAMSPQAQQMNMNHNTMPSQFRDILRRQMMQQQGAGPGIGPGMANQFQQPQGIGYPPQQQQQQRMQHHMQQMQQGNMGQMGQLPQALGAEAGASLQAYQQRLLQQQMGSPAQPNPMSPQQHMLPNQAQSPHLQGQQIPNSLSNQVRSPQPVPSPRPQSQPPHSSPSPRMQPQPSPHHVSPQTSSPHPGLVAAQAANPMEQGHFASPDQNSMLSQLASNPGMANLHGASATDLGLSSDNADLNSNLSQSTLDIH
The experiment in a line: Immunoprecipitation with anti-CtBP2 in MPAEpiC cells co-treated with LPS and PNSC928. In kind it is cell-based. As to conditions: LPS + PNSC928 0, 11.8, 23.6, and 47.2 µM, 6 h. The protocol: For LPS treatment, different knockdown (KD) cell lines—Control^KD, CtBP2^KD, p300^KD, and p65^KD, all derived from MPAEpiC—were seeded in 12-well plates and cultured at 37 °C until reaching 80% confluence. The cells were then treated with 200 ng/mL of LPS for 6 h, washed three times with PBS, and subjected to the required experiments. For experiments involving inhibitors of CtBP2, p300, and NF-κB, as well as the compound PNSC928, MPAEpiC, RAW264.7, FL83B, TKPTS, and HL-1 cells were seeded in 12-well plates and cultured at 37 °C to reach 80% confluence. Cells were then cotreated with 200 ng/mL LPS along with varying concentrations of the following chemicals: MTOB (0, 5, 10, or 20 mM), NSC95397 (0, 10, 20, or 40 µM), C646 (0, 3, 6, or 12 µM), A-485 (0, 5, 10, or 20 nM), TPCA1 (0, 150, 300, or 600 nM), BOT64 (0, 1, 2, or 4 µM), or PNSC928 (0, 11.8, 23.6, or 47.2 µM). After 6 h of treatment, cells were washed three times with PBS before proceeding with further experiments. […]
To probe this interaction, we established an AlphaScreen system that utilized GST-p300^BRD and His-CtBP2, binding to donor and acceptor beads, respectively (Fig. 4C). […] In vitro assays assessed the effects of PNSC928 on the CtBP2-p300^BRD interaction. […] Furthermore, we assessed the impact of combined LPS and PNSC928 treatment on the expression of key molecules in the NF-κB signaling pathway.

For test [2], the system named is NF-κB signaling pathway. Description: Immunoblots of NF-κB signaling pathway molecules in LPS-treated MPAEpiC cells. The format is cell-based, mouse. The conditions noted are these: LPS 200 ng/mL + PNSC928 0, 23.6, and 47.2 µM, 6 h. The protocol: For LPS treatment, different knockdown (KD) cell lines—Control^KD, CtBP2^KD, p300^KD, and p65^KD, all derived from MPAEpiC—were seeded in 12-well plates and cultured at 37 °C until reaching 80% confluence. The cells were then treated with 200 ng/mL of LPS for 6 h, washed three times with PBS, and subjected to the required experiments. For experiments involving inhibitors of CtBP2, p300, and NF-κB, as well as the compound PNSC928, MPAEpiC, RAW264.7, FL83B, TKPTS, and HL-1 cells were seeded in 12-well plates and cultured at 37 °C to reach 80% confluence. Cells were then cotreated with 200 ng/mL LPS along with varying concentrations of the following chemicals: MTOB (0, 5, 10, or 20 mM), NSC95397 (0, 10, 20, or 40 µM), C646 (0, 3, 6, or 12 µM), A-485 (0, 5, 10, or 20 nM), TPCA1 (0, 150, 300, or 600 nM), BOT64 (0, 1, 2, or 4 µM), or PNSC928 (0, 11.8, 23.6, or 47.2 µM). After 6 h of treatment, cells were washed three times with PBS before proceeding with further experiments.
Cellular and mouse lung tissue lysates were prepared using the RIPA buffer (Thermo Fisher; #PI89900) supplemented with 1 × complete protease inhibitor cocktail (Thermo Fisher; #87,785). Following a 10-minute centrifugation at 13,000 g, proteins (50 µg) from the cleared lysate were resolved via 10% SDS-PAGE. These separated proteins were electroblotted onto PVDF membranes (Thermo Fisher; #88,585). […]

For the compound `CC(=CCCC1=CCC(C2COC(=O)C2)OC1O)CCC1=C(C)CCCC1(C)C` (centres unmarked) [PNSC928], the “p300^BRD levels pulled down by CtBP2” value in test [1] was “dose-dependent decrease”. Further, the “Effect on LPS-induced pIKKα, pIκBα, IκBα levels and nuclear translocation of p65 and p50” value in test [2] is “did not alter the effects of LPS”.
